Data set [1] is described as follows: Cytotoxicity against human HeLa cells assessed as inhibition of cell viability under dark condition incubated for 27 hrs by CCK8 assay. In kind it is toxicity, cell-based. On the technique in general: Tetrazolium dyes change colour on reduction, which living cells bring about.
Data set [2] can be described thus: Cytotoxicity against HUVEC cells assessed as inhibition of cell viability under dark condition incubated for 27 hrs by CCK8 assay. The format is toxicity, cell-based. The conditions noted are these: human.
The next data set has as its system B16-F10. In words: Photodynamic cytotoxicity against mouse B16-F10 cells assessed as inhibition of cell viability incubated for 3 hrs followed by photo-irradiation at 54 J/cm2 measured after 24 hrs by CCK8 assay. The format is functional, cell-based. To be noted: B16-F10, light or radiation study.
For another data set, the system named is HepG2. In words: Photodynamic cytotoxicity against human HepG2 cells assessed as inhibition of cell viability incubated for 3 hrs followed by photo-irradiation at 54 J/cm2 measured after 24 hrs by CCK8 assay. The format is functional, cell-based. The conditions noted are these: HepG2, light or radiation study.
In data set [3] the test system is HeLa. As to the kind of experiment: Photodynamic cytotoxicity against human HeLa cells assessed as inhibition of cell viability incubated for 3 hrs followed by photo-irradiation at 54 J/cm2 measured after 24 hrs by CCK8 assay. The format is functional, cell-based. To be noted: light or radiation study.
Data set [4] in a line: Cytotoxicity against human HepG2 cells assessed as inhibition of cell viability under dark condition incubated for 27 hrs by CCK8 assay. In kind it is toxicity, cell-based.
A short description of data set [5]: Cytotoxicity against mouse B16-F10 cells assessed as inhibition of cell viability under dark condition incubated for 27 hrs by CCK8 assay. The format is toxicity, cell-based.
For a further data set, the system named is HUVEC. As to the kind of experiment: Photodynamic cytotoxicity against HUVEC cells assessed as inhibition of cell viability incubated for 3 hrs followed by photo-irradiation at 54 J/cm2 measured after 24 hrs by CCK8 assay. The format is functional, cell-based. To be noted: Homo sapiens, light or radiation study.
The nature of data set [6]: Drug uptake in human HeLa cells at 5 uM by confocal scanning microscopy. The format is ADME, cell-based. To be noted: 3 h, TDE = time-dependent effect.
The test system of data set [7] is HeLa. In words: Antitumor activity against human HeLa cells xenografted in Balb/C nu/nu mouse assessed as tumor growth inhibition at 2.5 umol/kg, iv with photo-irradiation at 30 J/cm2 after 1 hr of compound administration measured for 6 days. In kind it is functional, organism-based. To be noted: dose 2.5 µmol/kg, time 6.0 day. (In general: In xenograft studies the graft and the host belong to different species.)

Data set [8] deals with HeLa. In words: Induction of ROS production in human HeLa cells upto 200 nM preincubated for 2 hrs followed by H2DCFDA probe exposure for 30 mins and subsequent removal of probe by confocal scanning microscopic analysis. The conditions noted are these: time 2.5 hrs. The format is functional, cell-based.
Data set [9] has as its system HeLa. As to the kind of experiment: Antitumor activity against human HeLa cells xenografted in Balb/C nu/nu mouse assessed as reduction in tumor histology at 2.5 umol/kg, iv with photo-irradiation at 30 J/cm2 after 1 hr of compound administration measured after 24 days by H and E staining based analysis. The format is functional, organism-based. To be noted: dose 2.5 µmol/kg, time 24.0 day.

Data set [10] can be described thus: Toxicity in Balb/C nu/nu mouse xenografted with human HeLa cells assessed as change in liver histology at 2.5 umol/kg, iv with photo-irradiation at 30 J/cm2 after 1 hr of compound administration measured after 24 days by H and E staining based analysis. The format is organism-based. The conditions noted are these: in vivo, 576 h, dose 2.5 µmol/kg, time 24 day.

A short description of data set [11]: Toxicity in Balb/C nu/nu mouse xenografted with human HeLa cells assessed as drug tolerance at 2.5 umol/kg, iv with photo-irradiation at 30 J/cm2 after 1 hr of compound administration measured for 24 days. The format is organism-based. The conditions noted are these: in vivo, 576 h, dose 2.5 µmol/kg, time 24 day.
The subject of data set [12] is HeLa. In words: Induction of ROS production in human HeLa cells preincubated for 2 hrs followed by H2DCFDA probe exposure for 30 mins and subsequent removal of probe with photo-irradiation at 16 J/cm2 by confocal scanning microscopic analysis. In kind it is functional, cell-based. The conditions noted are these: dose <= 200.0 nM, time 2.5 hrs.
Data set [13] is described as follows: Toxicity in Balb/C nu/nu mouse xenografted with human HeLa cells assessed as increase in body weight at 2.5 umol/kg, iv with photo-irradiation at 30 J/cm2 after 1 hr of compound administration measured for 24 days. In kind it is organism-based. To be noted: in vivo, 576 h, dose 2.5 µmol/kg, time 24 day.
The nature of data set [14]: Toxicity in Balb/C nu/nu mouse xenografted with human HeLa cells assessed as change in lung histology at 2.5 umol/kg, iv with photo-irradiation at 30 J/cm2 after 1 hr of compound administration measured after 24 days by H and E staining based analysis. To be noted: in vivo, 576 h, dose 2.5 µmol/kg, time 24 day. The format is organism-based.
A short description of data set [15]: Toxicity in Balb/C nu/nu mouse xenografted with human HeLa cells assessed as change in heart histology at 2.5 umol/kg, iv with photo-irradiation at 30 J/cm2 after 1 hr of compound administration measured after 24 days by H and E staining based analysis. In kind it is organism-based. The conditions noted are these: in vivo, 576 h, dose 2.5 µmol/kg, time 24 day.

Data set [16] is described as follows: Toxicity in Balb/C nu/nu mouse xenografted with human HeLa cells assessed as change in spleen histology at 2.5 umol/kg, iv with photo-irradiation at 30 J/cm2 after 1 hr of compound administration measured after 24 days by H and E staining based analysis. The format is organism-based. To be noted: in vivo, 576 h, dose 2.5 µmol/kg, time 24 day.
Data set [17] in a line: Toxicity in Balb/C nu/nu mouse xenografted with human HeLa cells assessed as change in kidney histology at 2.5 umol/kg, iv with photo-irradiation at 30 J/cm2 after 1 hr of compound administration measured after 24 days by H and E staining based analysis. The conditions noted are these: in vivo, 576 h, dose 2.5 µmol/kg, time 24 day. The format is organism-based.
Data set [18] is described as follows: Drug localization in endoplasmic reticulum of human HeLa cells at 5 uM incubated for 30 mins by ER-Tracker Green dye based confocal scanning microscopic analysis. The format is ADME. The conditions noted are these: 0.5 h.
Data set [19] in a line: Drug localization in lysosome of human HeLa cells at 5 uM incubated for 30 mins by Lyso-tracker Green DND-26 dye based confocal scanning microscopic analysis. In kind it is ADME, subcellular. The conditions noted are these: 0.5 h.
The subject of data set [20] is HeLa. In words: Induction of ROS production in human HeLa cells upto 200 nM preincubated for 2 hrs followed by H2DCFDA probe exposure for 30 mins and subsequent removal of probe with photo-irradiation at 16 J/cm2 by confocal scanning microscopic analysis. To be noted: time 2.5 hrs. The format is functional, cell-based.
The nature of data set [21]: Drug uptake in human HeLa cells at 5 uM incubated for 3 hrs by confocal scanning microscopy. In kind it is ADME, cell-based.
Data set [22] is described as follows: Drug localization in mitochondria of human HeLa cells at 5 uM incubated for 30 mins by MitoTracker Green FM dye based confocal scanning microscopic analysis. To be noted: 0.5 h. In kind it is ADME.
Data set [23] relates to HeLa. In words: Antitumor activity against human HeLa cells xenografted in Balb/C nu/nu mouse assessed as tumor growth inhibition at 2.5 umol/kg, iv with photo-irradiation at 30 J/cm2 after 1 hr of compound administration measured for 24 days. In kind it is functional, organism-based. To be noted: dose 2.5 µmol/kg, time 24.0 day.

7 compounds from ChEMBL document CHEMBL5338790, “Discovery of Subcellular-Targeted Aza-BODIPY Photosensitizers for Efficient Photodynamic Antitumor Therapy” (J Med Chem, 2023) can be followed below.

Calls of active or inactive are those of the source. No cut-off for these calls is given here.

The term IC50 denotes the point on the concentration scale where inhibition reaches its midpoint. Take `Br.COc1ccc2c(c1)CCc1c(-c3ccccc3)c3n(c1-2)[B-](F)(F)[N+]1=C(c2ccc(OCc4cn(CCC[P+](c5ccccc5)(c5ccccc5)c5ccccc5)nn4)cc2)C(I)=C(c2ccccc2)C1=N3`: the IC50 at 27 h in [1] worked out at 10.6 µM; in data set [2], 12.5 µM; in [4], 11.4 µM; in data set [5] it was 12.8 µM. Further, the 50% inhibitory concentration (IC50) in the data set on B16-F10 stood at 21 nM; with HepG2, 14.3 nM; with HeLa [3] it was 2 nM; in the data set on HUVEC, 13.7 nM. Besides, in [6], the Drug uptake entry is given as “Tde”.

Take `COc1ccc(C2=[N+]3C(=Nc4c(-c5ccccc5)c5c(n4[B-]3(F)F)-c3ccc(OC)cc3CC5)C(c3ccccc3)=C2I)cc1`: the IC50 at 27 h in data set [1], in [2], in data set [4] and in [5] was greater than 50 µM throughout. In addition, the result in the data set on HeLa [7] and in the data set on HeLa [9] was Active. Also, the result in the data set on HeLa [8] was inactive. Moreover, the Activity entry is “Non-Toxic” in data set [10]; “Non-Toxic” in [11]; “Dose-Dependent Effect” with HeLa [12]; “Non-Toxic” in data set [13]; “Non-Toxic” in [14]; “Non-Toxic” in data set [15]. In addition, the Activity result in [16] and in data set [17] was “Non-Toxic” throughout. For the same compound, the half-inhibitory concentration (IC50) in the data set with B16-F10 amounted to 317 nM; in the data set on HepG2, 85.6 nM; in the data set on HeLa [3], 62.8 nM; in the data set with HUVEC, 88.8 nM. In addition, the Drug uptake result in data set [6] is listed as “Tde”.

Regarding `Br.COc1ccc2c(c1)CCc1c(-c3ccccc3)c3n(c1-2)[B-](F)(F)[N+]1=C(c2ccc(OCC(=O)NCCC[P+](c4ccccc4)(c4ccccc4)c4ccccc4)cc2)C(I)=C(c2ccccc2)C1=N3`, the IC50 at 27 h in data set [1] was 21.3 µM; in data set [2], 20.1 µM; in data set [4] it was 25.8 µM; in [5], 44.4 µM. Further, the outcome in the data set on HeLa [8] was inactive. Also, the Drug uptake result in [18] was “Not Active”; in [19] it was “Not Active”; in data set [21], “Active”; in data set [22], “Active”; in [6], “Tde”. Further, the IC50 in the data set on B16-F10 came to 33.7 nM; in the data set with HepG2 it was 14.3 nM; in the data set with HeLa [3], 5.5 nM; in the data set on HUVEC, 12.2 nM. In addition, the Activity entry with HeLa [12] was “Dose-Dependent Effect”. In the data set on HeLa [20], the outcome was Active.

Regarding `COc1ccc2c(c1)CCc1c(-c3ccccc3)c3n(c1-2)[B-](F)(F)[N+]1=C(c2ccc(OCc4cn(CCCN5CCOCC5)nn4)cc2)C(I)=C(c2ccccc2)C1=N3`, the IC50 at 27 h in data set [1] was 25.4 µM; in data set [2], greater than 50 µM; in data set [4] it was greater than 50 µM; in [5] it was greater than 50 µM. The concentration for half-maximal inhibition (IC50) with B16-F10 amounted to 10.4 nM; with HepG2, 9.1 nM; in the data set on HeLa [3] it was 4.8 nM; in the data set on HUVEC, 11.3 nM. Further, in data set [6], the Drug uptake result was “Tde”.

Turning to `C=Cc1c(C)c2cc3nc(c(CC(=O)O)c4[nH]c(cc5nc(cc1[nH]2)C(C)=C5CC)c(C)c4C(=O)O)[C@@H](CCC(=O)O)[C@@H]3C` [CHLORIN E6], the IC50 at 27 h in data set [1], in data set [2], in data set [4] and in data set [5] was greater than 50 µM each time. Moreover, the Activity result in data set [10], in data set [11], in data set [13], in [14], in data set [15] and in data set [16] was “Non-Toxic” throughout. Further, in data set [17], the Activity result was “Non-Toxic”. In addition, the IC50 with B16-F10 turned out to be 2300 nM; in the data set on HepG2 it was 599 nM; in the data set with HeLa [3], 955 nM; in the data set on HUVEC, 799 nM. Moreover, the outcome in the data set on HeLa [23] was inactive.

On to `COc1ccc2c(c1)CCc1c(-c3ccccc3)c3n(c1-2)[B-](F)(F)[N+]1=C(c2ccc(OCC(=O)NCCCNC(=O)c4c(F)c(F)c(F)c(F)c4F)cc2)C(I)=C(c2ccccc2)C1=N3`, for which the half-maximal inhibitory concentration (IC50) at 27 h in data set [1], in data set [2], in [4] and in data set [5] was greater than 50 µM each time. Besides, the 50% inhibitory concentration (IC50) in the data set with B16-F10 amounted to 74.8 nM; with HepG2, 41.2 nM; in the data set with HeLa [3], 38.2 nM; in the data set on HUVEC, 55.8 nM. In data set [6], the Drug uptake entry was “Tde”.

`COc1ccc2c(c1)CCc1c(-c3ccccc3)c3n(c1-2)[B-](F)(F)[N+]1=C(c2ccc(OCc4cn(CCCNC(=O)c5c(F)c(F)c(F)c(F)c5F)nn4)cc2)C(I)=C(c2ccccc2)C1=N3`: the IC50 at 27 h in data set [1], in data set [2], in [4] and in data set [5] was greater than 50 µM each time. Moreover, the IC50 amounted to 413 nM in the data set on B16-F10, 179 nM in the data set on HepG2, 92 nM with HeLa [3] and 219 nM in the data set with HUVEC. Moreover, the Drug uptake result in data set [6] is “Tde”.
